Laboratory results reported in paper PMC10399917 (Journal of Molecular Cell Biology, 2023).
pIC50: −log10 of the molar value. Several values for one entry are separate records, joined by “and”; a condition that tells them apart may be missing. Identical values can stand only once. Like-named read-outs stand apart in the source and are kept apart here.

Experiments:
[1] = biological target: TMPRSS2–SPIKE interaction (His-TMPRSS2 and SPIKE-FLAG) (Severe acute respiratory syndrome coronavirus 2, UniProt P0DTC2); assay: biochemical; assay type: binding, SARS-CoV-2
[2] = biological target: TMPRSS2–SPIKE interaction (SmBiT-TMPRSS2 and SPIKE-LgBiT) (Severe acute respiratory syndrome coronavirus 2, UniProt P0DTC2); assay type: cell-based, SARS-CoV-2
SPIKE protein = settings: ref Feng et al., 2020; cited from earlier work

SMILES | pIC50 ([1]; read-out: IC50, TR-FRET signal) | Inhibition of NanoBiT signal [2] | pIC50 ([1]; IC50, TR-FRET signal) | Binding to the SPIKE protein (SPIKE protein)
N#C/C(=C/c1ccc(O)c(O)c1)C(=O)NCc1ccccc1 [AG-490] | ~4.72 |  |  | 
O=C(/C=C/c1ccc(O)c(O)c1)OCCc1ccccc1 [CAPE, caffeic acid phenethyl ester] |  | dose-dependent inhibition | 4.86 | 
CC(C)c1onc(-c2c(Cl)cccc2Cl)c1COc1ccc(/C=C/c2cccc(C(=O)O)c2)c(Cl)c1 [GW4064] | ~5.15 |  |  | 
Cc1cc(C(C#N)c2ccc(Cl)cc2)c(Cl)cc1NC(=O)c1cc(I)cc(I)c1O (stereo not drawn) [closantel] |  |  | ~4.77 | 
CC1=NN(c2ccc(C)c(C)c2)C(=O)/C1=N\Nc1cccc(-c2cccc(C(=O)O)c2)c1O [eltrombopag olamine] |  |  | ~4.70 and 4.69 | bind to the SPIKE protein
Cc1cc2c(C(C)C)c(O)c(O)c(C=O)c2c(O)c1-c1c(C)cc2c(C(C)C)c(O)c(O)c(C=O)c2c1O [gossypol acetate] |  | dose-dependent inhibition | 6.16 | 
